Laboratory results taken from patent US9486440B2, “Uses of indole-ketones or indolidones as neuro-protective drugs” (UNIVERSITY OF MACAU, priority 2011, dated 2016).
Like-named read-outs stand apart in the source and are kept apart here.

What was measured:
[1] = system: nNOS knockdown PC12 cells; test: MPP+ in ShRNA-mediated nNOS knockdown PC12 cells; format: cell-based, rat; settings: 20 μM SU5416 2 hours, then 1 mM MPP+ 24 hours
Experimental: The assay was performed according to the specifications of the manufacturer (MTT kit I; Roche Applied Science). […] After the incubation, 100 μl of the solvating solution (0.01 N HCl in 10% SDS solution) was added to each well for 16-20 hours. The absorbance of the samples was measured at a wavelength of 570 nm with 655 nm as a reference wavelength. Unless otherwise indicated, the extent of MTT conversion in cells exposed to MPP^+ is expressed as a percentage of the control. Cytotoxicity was determined by measuring the release of lactate dehydrogenase (LDH). Briefly, cells were precipitated by centrifugation at 500 g for 5 min at room temperature, 50 μl of the supernatants was transferred into new wells, and LDH was determined using the in vitro toxicology assay kit (Roche). The absorbance of the samples was measured at a wavelength of 490 nm with 655 nm as a reference wavelength. ShRNA against rat nNOS was designed according to […] et al, 2009. […] NM_052799), was used to generate shRNA. […] Sense and antisense oligonucleotides were then annealed and cloned into pG418-GFP vector to express shRNA directed against nNOS under the control of the U6 promoter (GenePharma, Shanghai, China). A negative control shRNA (ShNC) with the same nucleotide composition but lacks significant sequence homology to the genome was also used in the experiments. […]

nNOS protein expression = test: Western blot of nNOS protein in CGNs after MPP+; format: cell-based, rat; settings: 20 μM, 35 μM MPP+
Experimental: Briefly, neurons were harvested in a cell lysis buffer. Protein was separated on SDS-polyacrylamide gel and transferred onto polyvinyldifluoride membranes. After membrane blocking, proteins were detected using primary antibodies. After incubation at 4° C. overnight, signals were obtained after binding to chemiluminescent secondary antibodies. Blots were developed using an ECL plus kit (Amersham Bioscience, Aylesbury, UK) and exposed to Kodak autoradiographic films. All data were from three independent experiments and were expressed as the ratio to optical density (OD) values of the corresponding controls for statistical analyses.

th gene = test: MPTP zebrafish, th gene expression by real-time PCR; format: in vivo; settings: 200 μM MPTP, 48 hours
Experimental: Wild-type zebrafish (AB strain) and Tg (fli-1:EGFP) transgenic zebrafish were maintained as described in the Zebrafish Handbook (Westerfield, 1993). Zebrafish embryos were generated by natural pair-wise mating (3-12 months old) and raised at 28.5° C. in embryo medium (13.7 mM NaCl, 540 μM KCl, pH 7.4, 25 μM Na2HPO4, 44 μM KH2PO4, 300 μM CaCl2, 100 μM MgSO4, 420 μM NaHCO3, pH 7.4). […] An equal concentration of DMSO in embryo medium was used as vehicle control in each experiment.
Healthy zebrafish embryos were picked out and […] manually at 1 day post fertilization (dpf) and distributed into a 12-well plate with 20 fish embryos or a 6-well microplate with 30 fish embryos in each well. […] Thus subsequent studies were done with 200 μM MPTP for whole-mount immunostaining and gene expression experiments.
Total RNA was extracted from 30 zebrafish larvae of each treatment group using the RNeasy Mini Kit (Qiagen, USA) according to the manufacturer's instructions. […] The expression of the mRNA was normalized to the amount of bactin1 using the relative quantification method described by the manufacturer. […]

recombinant human MAO-B = biological target: T1, recombinant human MAO-B (Homo sapiens, UniProt P27338); test: MAO-Glo MAO-B inhibition assay; format: biochemical
T1 construct: purchased Sigma-Aldrich
T1 sequence (P27338 whole entry): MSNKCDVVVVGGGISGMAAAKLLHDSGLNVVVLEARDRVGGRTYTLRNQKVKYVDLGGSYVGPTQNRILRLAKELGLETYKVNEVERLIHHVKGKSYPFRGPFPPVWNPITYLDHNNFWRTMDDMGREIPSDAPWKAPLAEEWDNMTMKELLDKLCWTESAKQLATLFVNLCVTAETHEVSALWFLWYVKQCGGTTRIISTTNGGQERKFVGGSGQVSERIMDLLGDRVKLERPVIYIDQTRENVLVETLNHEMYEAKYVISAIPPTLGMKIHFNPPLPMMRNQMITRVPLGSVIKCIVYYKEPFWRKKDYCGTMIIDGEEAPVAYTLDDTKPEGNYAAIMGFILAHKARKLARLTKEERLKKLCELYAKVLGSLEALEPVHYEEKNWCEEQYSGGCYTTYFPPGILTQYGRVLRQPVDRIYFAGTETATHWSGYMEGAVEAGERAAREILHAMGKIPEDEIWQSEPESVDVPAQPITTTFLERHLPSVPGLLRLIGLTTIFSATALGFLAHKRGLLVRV
Experimental: The MAO-B inhibition activity of SU4312 was determined by MAO-Glo™ Assay kit (Promega Inc., USA). The recombinant human MAO-B enzymes and selegiline used in this study were purchased from Sigma-Aldrich. Concentrations of SU4312 tested were 0.01, 0.03, 0.1, 0.3, 1.0 and 10 μM. Selegiline, a known MAO-B inhibitor, was used as positive control at 0.001, 0.01, 0.1, 1, 10 μM. Briefly, SU4312 and selegiline were incubated in 96-well opaque white plates with MAO substrate and rhMAO-B (0.25 mg protein/mL final concentration). Reactions were started by addition of rhMAO-B. Samples were incubated for 1 hour at room temperature. Reactions were terminated by addition of luciferin detection reagent, and samples were incubated an additional 20 minutes to allow development of luciferase- and esterase-dependent luminescence. Relative luminescence was determined with a plate luminometer and was corrected for background using no-MAO-B controls. Results are presented as percent of vehicle (total MAO-B activity).

PDGFR = settings: cited from earlier work
VEGFR-2 = settings: cited from earlier work
CGNs = test: Low potassium-induced cell death in CGNs, MTT assay; format: cell-based; settings: 5 mM KCl BME medium, 24 hours; sunitinib 0.1-2 μM
Experimental: Cell viability was measured by MTT assay at 24 hours after low potassium challenge. […] After 24 hours of low potassium challenge, CGNs were assayed with an FDA/PI double staining. […] After 24 hours of low potassium challenge, CGNs were assayed with Hoechst staining. The number of apoptotic nuclei with condensed chromatin were counted from representative Hoechst staining photomicrographs and represented as a percentage of the total number of nuclei counted. […] Intracellular NO level was measured using DAF-FM diacetate as a probe at 4 hour after low potassium challenge. Data, expressed as percentage of control (CGNs were cultured in high potassium medium), were the mean±SEM of three separate experiments; *p<0.05 and **p<0.01 versus low potassium group in (A) and (D) or versus control in (C); ^##p<0.01 versus low potassium group in (C) (Turkey's test).
It was previously reported that low potassium could induce typical apoptosis in cerebellar granule neurons (CGNs) (Fu et al., 2008). […] Cell viability was measured with an MTT assay 24 hours after the low potassium treatment.

## Cc1cc(C)c(/C=C2\C(=O)Nc3ccccc32)[nH]1 [SU5416, (3Z)-3-[(3,5-dimethyl-1H-pyrrol-2-yl)methylidene]-1,3-dihydro-2H-indol-2-one]
[1]
  MPP+-induced cell death in nNOS knockdown PC12 cells (MTT, LDH): no longer able to inhibit MPP^+-induced cell death
nNOS protein expression
  MPP+-increased expression of nNOS protein: reversed the increased expression of nNOS by MPP^+

## CN(C)c1ccc(C=C2C(=O)Nc3ccccc32)cc1 [SU4312, 3-[4-(dimethylamino)benzylidenyl]indolin-2-one]
Th gene
  th gene expression down-regulated by MPTP: significantly alleviated the loss of DA neurons and decrease of th gene expression in a concentration-dependent manner
Recombinant human MAO-B; figure legends
  MAO-B activity in vitro: inhibited monoamine oxidase-B (MAO-B) activity in a concentration dependent manner
Recombinant human MAO-B; rhMAO-B, 1 hour at room temperature
  IC50: ~0.2 µM

## Clc1ccc(Nc2nnc(Cc3ccncc3)c3ccccc23)cc1 [PTK787/ZK222584]
PDGFR
  IC50: […]
VEGFR-2
  IC50: […]
VEGFR-2; listed as PTK787
  IC50: […]
CGNs
  low potassium-induced cell death (MTT): at 3 and 10 μM both failed to block neuronal loss in vitro
